Laboratory results from patent US12286632B2, “Rationally-designed synthetic peptide shuttle agents for delivering polypeptide cargos from an extracellular space to the cytosol and/or nucleus of a target eukaryotic cell, uses thereof, methods and kits relating to same” (Feldan Bio Inc., priority 2016, dated 2025).
Ends that are not written are not given here.

Assays:
[1] = in vitro; details: human, HeLa cells
[2] = in vitro; details: human, HeLa cells, Cell viability (%) (±St Dev.; n = 3)
[3] = test system: HeLa cells; experiment: GFP-NLS protein transduction assay (flow cytometry: Pos cells %, viability %, relative fluorescence intensity; microscopy); details: Table B2; HeLa cells, GFP-NLS cargo
[4] = test system: NK-92 cells; experiment: NKG2A gene inactivation by delivered CRISPR/Cpf1-NLS: PE anti-NKG2A immunolabelling, FACS; format: cell-based, Human; details: FSD23 6 μM; Cpf1-NLS 1.5 μM; 90 sec; 48 h
Protocol: Genome editing was performed in NK-92 cells to evaluate whether inactivation of the endogenous NKG2A gene could increase the cytotoxicity of the NK-92 cells. Briefly, one million NK-92 cells were incubated with Cpf1-NLS (1.5 μM) gRNA complex targeting the NKG2A gene and with FSD23 (6 μM) for 90 sec. After transduction, cells were incubated in complete medium with IL-2 (20 ng/mL) for 48 h at 37° C. NK-92 cells were then immunolabelled with a phycoerythrin (PE)-labelled anti-NKG2A antibody (Miltenyi Biotec #CD159a) following the manufacturer recommendations. NK-92 cells were then analyzed with FACS and scored as a function of their anti-NKG2A detection (PE fluorescence) level and the results are shown in FIG. 57A. As controls, unlabelled wild-type NK-92 cells (“unlabelled WT cells”) had no antibody signal, and labelled wild-type NK-92 cells (“labelled WT cells”) had full immunolabelling signal.

[5] = test system: HeLa cells; experiment: Plasmid DNA (pEGFP-C1) transfection by peptides (% cells with GFP signal, cell viability); details: DNA transfection in HeLa cells using peptides; pEGFP-C1 plasmid
[6] = test system: Jurkat cells; experiment: Cleaved PARP ELISA assay after transduction of anti-Active Caspase 3 or anti-TNF antibody (± actinomycin D); format: cell-based, Human; details: FSD23 7.5 μM, 5 min
Protocol: (§1) A monoclonal (mAb) and a polyclonal (pAb) anti-Active Caspase 3 antibodies […] were independently co-incubated with THP-1 and Jurkat cells for 5 min in the presence of FSD23 at 7.5 μM. The anti-apoptotic effect of each antibody was assessed via the level of Caspase 3-activated apoptosis with an ELISA cleaved PARP assay and quantified by spectrometry as described below.
(§2) The day of the experiment, cells in exponential growth phase were harvested, centrifugated (400g for 3 min) and resuspended in serum-free RPMI in a 96-well plate (500,000 cells in 150 μL per well). Cells were centrifugated and incubated for 5 min with a mix composed by the peptide to be tested (7.5 μM) and 2 μg of the antibody to be transduced. Cells were centrifuged and resuspended in RPMI with serum in a 24-well plate for 1 h at 37° C. Actinomycin D (2 μg/mL), a cytotoxic inducer of apoptosis, was incubated with the cells for 4 h. Cells were washed with cold PBS and tested using the PARP (Cleaved) [214/215]Human ELISA Kit (ThermoFisher) according to the manufacturer's instructions followed by spectroscopy analysis. […]

[7] = test system: THP-1 cells; experiment: as above; format: cell-based, human; details: FSD23 7.5 μM, 5 min
Protocol: as §1, §2

[8] = test system: B2M genomic DNA sequence; experiment: T7E1 DNA cleavage assay / % INDELs after CRISPR/Cas9-NLS or CRISPR/Cpf1-NLS delivery (HeLa, THP-1, NK, T cells); format: cell-based, Human; details: CRISPR/Cpf1 1.33 μM, crRNA 2 μM; THP-1 and NK cells; different concentrations and exposure times
Excerpt: The T7 endonuclease I (T7E1) can be used to detect on-target CRISPR/Cas genome editing events in cultured cells. As an overview, genomic DNA from target cells is amplified by PCR. The PCR products are then denatured and reannealed to allow heteroduplex formation between wild-type DNA and CRISPR/Cas-mutated DNA. T7E1, which recognizes and cleaves mismatched DNA, is used to digest the heteroduplexes. The resulting cleaved and full-length PCR products are visualized by gel electrophoresis.
The T7E1 assay was performed with the Edit-R™ Synthetic crRNA Positive Controls (Dharmacon #U-007000-05) and the T7 Endonuclease I (NEB, Cat #M0302S). After the delivery of the CRISPR/Cas complex, cells were lysed in 100 μL of Phusion™ High-Fidelity DNA polymerase (NEB #M0530S) laboratory with additives. The cells were incubated for 15-30 minutes at 56° C., followed by deactivation for 5 minutes at 96° C. The plate was briefly centrifuged to collect the liquid at bottom of the wells. 50-μL PCR samples were set up for each sample to be analyzed. The PCR samples were heated to 95° C. for 10 minutes and then slowly (>15 minutes) cooled to room temperature. PCR product (-5 μL) was then separated on an agarose gel (2%) to confirm amplification. 15 μL of each reaction was incubated with T7E1 nuclease for 25 minutes at 37° C. Immediately, the entire reaction volume was run with the appropriate gel loading buffer on an agarose gel (2%).
Cas9-NLS recombinant protein was prepared as described in Example 13.1. Cpf1-NLS recombinant protein was prepared as described in Example G.2. A mix composed of a Cas9-NLS recombinant protein with its respective crRNAltracrRNA, or a Cpf1-NLS recombinant protein with its respective single guide crRNA(s) (see below) targeting a nucleotide sequence of the B2M gene, was co-incubated with different concentrations of the peptides FSD10, FSD18, FSD19, FSD21, FSD22, or FSD23 and incubated with HeLa, THP-1 or NK cells for 90 sec in PBS, or for 1 h in medium without serum, or for 48 h in medium with serum, using the transduction protocols as generally described in Example 3.1a. Cells were then washed with PBS and harvested to proceed with the T7E1 protocol assay as described in Example 13.4.
FIGS. 52A-52D show the results of the cleavage of the targeted genomic B2M DNA sequence after the delivery of CRISPR/Cpf1 (1.33 μM) with crRNA−1 or crRNA−2 (2 μM) in the absence (“-ctrl”) or in the presence of the peptides FSD10, FSD18, FSD19, FSD21 or FSD23 used at different concentrations, exposure times, and in different types of cells: THP-1 (FIG. 52A), and NK (FIGS. 52B, 52C, 52D), after separation by agarose gel electrophoresis. […] Gel lanes were loaded in duplicate. Thin dashed arrows indicate the bands corresponding to the target gene, and thick solid arrows indicate the bands corresponding to the cleavage products of this target gene, which indicate the successful transduction of fully functional CRISPR genome editing complexes. We used a Bio-Rad ImageLab™ software (Version 5.2.1, Bio-Rad, http://www.bio-rad.com/en-ca/product/image-lab-software?tab=Download) to quantify the relative signal intensities of each of the different bands directly on the gels. The sum of all the bands in a given lane corresponds to 100% of the signal, and the numerical value in italics at the bottom of each lane is the sum of the relative signals (%) of only the two cleavage product bands (thick solid arrows). No cleavage product bands were found in the negative controls (“-ctrl”, i.e., to cells that were exposed to CRISPR system in the absence of FSD peptide).
Cas9-NLS recombinant protein was prepared as described in Example 13.1. Cpf1-NLS recombinant protein was prepared as described in Example G.2. […]

For “HHHHHHLLKLWSRLLKEWTQGRRLEAKRAEAHHHHHH [FSD23]”, which viability [1] is on record?
The viability was 98.2 ± 1.03%.

What about the viability [2] of the same sequence?
Its viability is 65.3 ± 5.44%.

And the “Mean % cells with GFP signal (±St. Dev.; n = 3)” value [3]?
Its value is 50.34 ± 4.29%.

What about the “NKG2A receptor expression on the cell surface after genome editing” value [4] of the same sequence?
The value was “two cell populations (peaks) were observed”.

And the “Mean % cells with GFP signal (±St. Dev.; n = 3)” value [5]?
Its value is 0.04 ± 0.00%.

What about the “transduction of functional anti-Active Caspase 3 antibodies (cleaved PARP, in words)” value [6] of the same sequence?
Its value is “successfully transduced functional anti-Active Caspase 3 antibodies”.

And the “transduction of functional anti-Active Caspase 3 antibodies (cleaved PARP, in words)” value [7]?
Its value is “successfully transduced functional anti-Active Caspase 3 antibodies”.

And the “delivery of CRISPR/Cpf1 complex, cleavage of genomic B2M (in words)” value [8]?
Its value is “successful delivery of the CRISPR genome-editing complexes to the nucleus”.
